Reference: patent publication US7268149B2 (Wyeth, priority 2002, dated 2007)
pEC50, pIC50: −log10 of the molar value. Where “and” joins values, the source holds several entries; their conditions need not be identical. Equal values may be shown once.

Legend:
[1] = test system: rat uterine decidualization; experiment: Rat decidualization assay; assay type: in vivo; settings: for EC50 for uterine wet weight (decidual response), individual studies: ovariectomized female Sprague-Dawley rats, once daily for seven days
Description: b. Animals (RACUC Protocol #5002)
The animals are treated once daily for seven days.
Uteri are removed and trimmed of fat.
Body weight: Mean total animal body weight (default-kg)
Decidual response: [(D−C)/C]×100%

androgen receptor (AR) = biological target: T1, androgen receptor (AR) (Mus musculus, UniProt P19091); experiment: Androgen receptor agonistic/antagonistic activity, PRE-tk-luciferase reporter in L929 cells; assay type: cell-based
T1 construct: L929 cells which express the AR but not the PR; endogenous in cells; host or cells: L929 cells infected with an adenovirus PRE-tk-luciferase reporter
T1 sequence (P19091 1-899): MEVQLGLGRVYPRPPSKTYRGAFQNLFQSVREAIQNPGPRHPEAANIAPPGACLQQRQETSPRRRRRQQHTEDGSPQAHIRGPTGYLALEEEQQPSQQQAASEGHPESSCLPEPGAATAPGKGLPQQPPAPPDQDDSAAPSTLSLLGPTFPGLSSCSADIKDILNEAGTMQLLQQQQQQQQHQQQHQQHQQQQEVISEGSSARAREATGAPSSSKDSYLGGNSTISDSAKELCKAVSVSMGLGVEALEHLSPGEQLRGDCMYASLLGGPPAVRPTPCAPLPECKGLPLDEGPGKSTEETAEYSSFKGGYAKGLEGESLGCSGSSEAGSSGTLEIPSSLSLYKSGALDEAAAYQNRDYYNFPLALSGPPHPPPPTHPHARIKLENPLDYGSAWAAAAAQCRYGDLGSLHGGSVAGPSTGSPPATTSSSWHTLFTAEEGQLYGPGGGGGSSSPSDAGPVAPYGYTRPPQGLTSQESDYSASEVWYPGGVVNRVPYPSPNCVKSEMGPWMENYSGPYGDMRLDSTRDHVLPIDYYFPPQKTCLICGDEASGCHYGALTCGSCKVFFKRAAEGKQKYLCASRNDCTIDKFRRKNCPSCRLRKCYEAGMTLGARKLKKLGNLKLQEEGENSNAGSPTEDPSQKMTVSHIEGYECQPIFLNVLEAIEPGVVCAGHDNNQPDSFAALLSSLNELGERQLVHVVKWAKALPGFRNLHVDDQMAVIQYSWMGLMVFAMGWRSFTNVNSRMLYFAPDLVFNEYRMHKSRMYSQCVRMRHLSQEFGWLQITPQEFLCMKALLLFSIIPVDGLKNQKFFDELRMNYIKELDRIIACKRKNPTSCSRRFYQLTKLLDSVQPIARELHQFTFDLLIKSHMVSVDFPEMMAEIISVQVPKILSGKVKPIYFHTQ
Description: The androgen receptor (AR) agonistic and antagonistic activity of the compositions of the invention in the L929 cells which express the AR but not the PR was evaluated as described in Zhang et al., Steroids, 65(10-11): 637-643 (October-November 2000).
Cells were plated in 96-well plates at 25,000 cells/well in DMEM (BioWhittaker) with 10% (v/v) fetal bovine serum (FBS). The next day, cells were infected with the adenovirus PRE-tk-luciferase reporter construct (2×10^9 pfu/ml particles) and kept in DMEM containing 10% charcoal stripped FBS for an additional 24 hours. […] To test the anti-androgenic activity, cells were co-treated with 3 nM DHT. Luciferase activity was measured 24 hours following the treatment.

eczema = experiment: Conditioning the skin of a human patient with severe eczema; assay type: in vivo; settings: about 50 mg daily
Description: A human patient having a severe form of eczema is treated according to the present invention. Specifically, about 50 mg of 5-(4,4-dimethyl-2-thioxo-1,4-dihydro-2H-3,1-benzoxazin-6-yl)-1-methyl-1H-pyrrole-2-carbonitrile is delivered to the patient daily.

acne vulgaris = experiment: Treatment of acne vulgaris in a human patient; assay type: in vivo; settings: oral tablet about 20 mg daily
Description: A human patient having acne vulgaris is treated according to the present invention. Specifically, 5-(4,4-dimethyl-2-thioxo-1,4-dihydro-2H-3,1-benzoxazin-6-yl)-1-methyl-1H-pyrrole-2-carbonitrile is orally delivered to the patient daily. Delivery is in the form of a tablet formulated to contain about 20 mg of 5-(4,4-dimethyl-2-thioxo-1,4-dihydro-2H-3,1-benzoxazin-6-yl)-1-methyl-1H-pyrrole-2-carbonitrile.

[2] = test system: alkaline phosphatase activity in T47D cells; experiment: T47D cell alkaline phosphatase assay; assay type: cell-based; settings: Homo sapiens, agonist mode, read-out: EC50 in the T47D alkaline phosphatase assay, test compounds
Description: 4. T47D Cell Alkaline Phosphatase Assay
The purpose of this assay is to identify progestins or antiprogestins by determining a compound's effect on alkaline phosphatase activity in T47D cells.
a. Culture Medium: DMEM:F12 (1:1) (GIBCO, BRL) supplemented with 5% (v/v) charcoal stripped fetal bovine serum (not heat-inactivated), 100 U/ml penicillin, 100 μg/ml streptomycin, and 2 mM GlutaMax (GIBCO, BRL).
b. Alkaline Phosphatase Assay Buffer:
I. 0.1 M Tris-HCl, pH 9.8, containing 0.2% Triton X-100
II. 0.1 M Tris-HCl, pH 9.8 containing 4 mM p-nitrophenyl phosphate (Sigma).
c. Cell Culture and Treatment:
Frozen T47D cells were thawed in a 37° C. water bath and diluted to 280,000 cells/ml in culture medium. To each well in a 96-well plate (Falcon, Becton Dickinson Labware), 180 μl of diluted cell suspension was added. Twenty μl of reference or test compounds diluted in the culture medium was then added to each well. […] The cells were incubated at 37° C. in a 5% CO2/humidified atmosphere for 24 hr.
d. Alkaline Phosphatase Enzyme Assay:
At the end of treatment, the medium was removed from the plate and […] of assay buffer I was added to each well. The plates were shaken in a titer plate shaker for 15 min. Then 150 μl of assay buffer II was added to each well.
e. Analysis of Results: Analysis of Dose-response Data
For reference and test compounds, a dose response curve is generated for dose (X-axis) vs. the rate of enzyme reaction (slope) (Y-axis). Square root-transformed data are used for analysis of variance and nonlinear dose response curve fitting for both agonist and antagonist modes. Huber weighting is used to downweight the effects of outliers. EC50 or IC50 values are calculated from the retransformed values.

T47D cells = experiment: T47D cell proliferation assay (BrdU incorporation); assay type: cell-based
Description: 3. T47D cell Proliferation Assay
The objective of this assay is the determination of progestational and antiprogestational potency by using a cell proliferation assay in T47D cells. A compound's effect on DNA synthesis in T47D cells is measured.
a. Growth Medium: DMEM:F12 (1:1) (GIBCO, BRL) supplemented with 10% (v/v) fetal bovine serum (not heat-inactivated), 100 U/ml penicillin, […], and 2 mM GlutaMax (GIBCO, BRL).
b. Treatment Medium: Minimum Essential Medium (MEM) (#51200-038GIBCO, BRL) phenol red-free supplemented with 0.5% charcoal stripped fetal bovine serum, 100 U/ml penicillin, […] streptomycin, and 2 mM GlutaMax (GIBCO, BRL).
Stock T47 D cells are maintained in growth medium. […]
At the end of BrdU labeling, the medium is removed and BrdU incorporation is measured using a cell proliferation ELISA kit (#RPN 250, Amersham Life Science) according to manufacturer's instructions. […] Then 25 μl of 1 M sulfuric acid is added to each well to stop color reaction and optical density is read in a plate reader at 450 nm within 5 min.
Square root-transformed data are used for analysis of variance and nonlinear dose response curve fitting for both agonist and antagonist modes. […] EC50 or IC50 values are calculated from the retransformed values. […]

Compound	pEC50 [2]	EC50 for uterine wet weight (decidual response), individual studies ([1]; s.c.)	further results
C#C[C@]1(O)CC[C@H]2[C@@H]3CCC4=CC(=O)CC[C@@H]4[C@H]3C(=C)C[C@@]21CC [3-Ketodesogestrel]	–	0.10 mg/kg, s.c. and 0.06 mg/kg, s.c. and 0.11 mg/kg, s.c.	Estimated average EC50 for uterine weight (decidual response) ([1]; average of dose-response curves, ovariectomized rats, s.c.): 0.10 mg/kg, s.c.
Cn1c(C#N)ccc1-c1ccc2c(c1)C(C)(C)OC(=S)N2 [5-(4,4-dimethyl-2-thioxo-1,4-dihydro-2H-3,1-benzoxazin-6-yl)-1-methyl-1H-pyrrole-2-carbonitrile]	–	–	AR agonistic activity (androgen receptor (AR); at the maximum concentration tested (10 nM)): only marginal agonistic activity; AR antagonistic activity (androgen receptor (AR); nine point dose response, co-treated with 3 nM DHT): significant antagonistic activity; Eczema outcome (eczema; after about 12 weeks): improvement in the eczema is observed; Dryness of the skin (eczema; thirty days after the treatment): a decrease in the dryness affected to the skin is noticed; Acne vulgaris outcome (acne vulgaris; after about 24 weeks): improvement in the acne vulgaris is observed; Presence of lesions caused by acne vulgaris (acne vulgaris; forty-five to sixty days after the treatment): a decrease in the presence of lesions caused by acne vulgaris is noticed
CCC1(CC)OC(=S)Nc2ccc(-c3ccc(C#N)n3C)cc21 [Example 2, 5-(4,4-Diethyl-2-thioxo-1,4-dihydro-2H-3,1-benzoxazin-6-yl)-1-methyl-1H-pyrrole-2-carbonitrile]	10.00	–	–
CCC1(C)OC(=S)Nc2ccc(-c3ccc(C#N)n3C)cc21 (centres unmarked) [Example 3, 5-(4-ethyl-4-methyl-2-thioxo-1,4-dihydro-2H-3,1-benzoxazin-6-yl)-1-methyl-1H-pyrrole-2-carbonitrile]	10.00	–	–
Cn1c(C#N)ccc1-c1ccc2c(c1)C(C(F)(F)F)(C(F)(F)F)OC(=S)N2 [Example 6, 1-Methyl-5-[2-thioxo-4,4-bis(trifluoromethyl)-1,4-dihydro-2H-3,1-benzoxazin-6-yl]-1H-pyrrole-2-carbonitrile]	> 8.00	–	–
C#C[C@]1(O)CC[C@H]2[C@@H]3CCC4=CC(=O)CC[C@@H]4[C@H]3CC[C@@]21CC [Levonorgestrel]	–	0.08 mg/kg, s.c. and 0.12 mg/kg, s.c. and 0.09 mg/kg, s.c. (2×)	–
CC(=O)O[C@]1(C(C)=O)CC[C@H]2[C@@H]3C[C@H](C)C4=CC(=O)CC[C@]4(C)[C@H]3CC[C@@]21C [MPA, medroxyprogesterone acetate]	–	0.42 mg/kg, s.c. and 0.39 mg/kg, s.c. (2×)	–
CC(=O)[C@H]1CC[C@H]2[C@@H]3CCC4=CC(=O)CC[C@]4(C)[C@H]3CC[C@]12C [Progesterone]	–	5.50 mg/kg, s.c.	–
CC#C[C@]1(O)CC[C@H]2[C@@H]3CCC4=CC(=O)CCC4=C3[C@@H](c3ccc(N(C)C)cc3)C[C@@]21C [RU486]	–	–	IC50 for uterine weight (decrease in EC50 progesterone induced decidual response) ([1]; ovariectomized rats, p.o., with EC50 dose of progesterone): 0.21 mg/kg, p.o. and 0.14 mg/kg, p.o.; pIC50 (T47D cells; read-out: IC50 (half-maximal decrease in trimegestone induced BrdU incorporation), antagonist mode, in the presence of 0.03 nM trimegestone): 10.80 and 10.74
C[C@H](O)C(=O)[C@@]1(C)CC[C@H]2[C@@H]3CCC4=CC(=O)CCC4=C3CC[C@@]21C [Trimegestone]	–	–	pEC50 (T47D cells; agonist mode, individual studies, read-out: EC50 (half-maximal increase in BrdU incorporation)): 10.77 and 10.85 and 10.72

Continued, in another order:

pEC50 [2]	Compound	EC50 for uterine wet weight (decidual response), individual studies ([1]; s.c.)	further results
9.30	Cn1c(C#N)ccc1-c1ccc2c(c1)C1(CCC1)OC(=S)N2 [Example 1, 1-Methyl-5-(2-thioxo-1,2-dihydrospiro[3,1-benzoxazine-4,1′-cyclobutan]-6-yl)-1H-pyrrole-2-carbonitrile]	–	–
9.52	Cn1c(C#N)ccc1-c1ccc2c(c1)C1(CCCCC1)OC(=S)N2 [Example 4, 1-Methyl-5-(2-thioxo-1,2-dihydrospiro[3,1-benzoxazine-4,1′-cyclohexan]-6-yl)-1H-pyrrole-2-carbonitrile]	–	–
9.30	Cn1c(C#N)ccc1-c1ccc2c(c1)C1(CCCC1)OC(=S)N2 [Example 5, 1-Methyl-5-(2-thioxo-1,2-dihydrospiro [3,1-benzoxazine-4,1′-cyclopentan]-6-yl)-1H-pyrrole-2-carbonitrile]	–	–
